This note sets out measurements from PubChem BioAssay AID328 (DTP/NCI, 2004).

Values joined by “and” are separate entries in the source; they are usually repeats but may differ in a detail not shown here. Equal values may be shown once. Inconclusive results and toxic doses are left out.

The test has as its system BDF1 mice, P388 leukemia ip, median survival T/C. Nature of the test: NCI In Vivo Anticancer Drug Screen. Data for tumor model P388 Leukemia (intraperitoneal) in B6D2F1 (BDF1) mice. Conditions: endpoint: median survival time, higher = longer survival. In a few lines:
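Read-out is survival of treated animals expressed relative to the vehicle group, as a T/C ratio.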

Where [1] appears, read: dose: 100.0 mg/kg/injection, schedule: Q01DX009 (ip), vehicle: saline with Tween-80.
[2] abbreviates: dose: 100.0 mg/kg/injection, schedule: Q04DX003 (ip), vehicle: saline with Tween-80.
The mark [3] stands for this setting: dose: 25.0 mg/kg/injection, schedule: Q01DX009 (ip), vehicle: saline with Tween-80.
The mark [4] stands for this setting: dose: 50.0 mg/kg/injection, schedule: Q01DX009 (ip), vehicle: saline with Tween-80.
[5] abbreviates: dose: 3.13 mg/kg/injection, schedule: Q01DX009 (ip), vehicle: saline.
The mark [6] stands for this setting: dose: 6.25 mg/kg/injection, schedule: Q01DX009 (ip), vehicle: saline.
Setting [7] is: dose: 12.5 mg/kg/injection, schedule: Q01DX009 (ip), vehicle: saline.

Take `COc1ccc(C(=O)CC(C#N)c2ccc3c(c2)OCO3)cc1OC` (stereo not drawn): the T/C runs as follows: under setting [1], 90 % of control; (dose: 200.0 mg/kg/injection, schedule: Q01DX009 (ip), vehicle: saline with Tween-80) 100 % of control; (dose: 400.0 mg/kg/injection, schedule: Q01DX009 (ip), vehicle: saline with Tween-80) 95 % of control.

Regarding `CNC(=O)c1ccc(C(=O)NC)cc1`, the T/C was 100 % of control under setting [2]; 100 % of control (dose: 200.0 mg/kg/injection, schedule: Q04DX003 (ip), vehicle: saline with Tween-80); 109 % of control (dose: 400.0 mg/kg/injection, schedule: Q04DX003 (ip), vehicle: saline with Tween-80).

Take `O=[N+]([O-])c1cccc2c1ccc[n+]2Cc1ccccc1`: the T/C (dose: 12.5 mg/kg/injection, schedule: Q01DX009 (ip), vehicle: saline with Tween-80) was 112 % of control; the T/C under setting [3] is 115 % of control; the T/C under setting [4] is 122 % of control.

`C/C=C(/C)N(C(C)=O)N(C(C)=O)c1ccc([N+](=O)[O-])cc1[N+](=O)[O-]`: the T/C is 109 % of control (dose: 100.0 mg/kg/injection, schedule: Q01DX001 (ip), vehicle: Klucel (hydroxypropylcellulose) (HPC)); 90 % of control (dose: 100.0 mg/kg/injection, schedule: Q04DX003 (ip), vehicle: Klucel (hydroxypropylcellulose) (HPC)); 100 % of control (dose: 200.0 mg/kg/injection, schedule: Q01DX001 (ip), vehicle: Klucel (hydroxypropylcellulose) (HPC)); 104 % of control (dose: 200.0 mg/kg/injection, schedule: Q04DX003 (ip), vehicle: Klucel (hydroxypropylcellulose) (HPC)); 109 % of control (dose: 400.0 mg/kg/injection, schedule: Q01DX001 (ip), vehicle: Klucel (hydroxypropylcellulose) (HPC)); 95 % of control (dose: 400.0 mg/kg/injection, schedule: Q04DX003 (ip), vehicle: Klucel (hydroxypropylcellulose) (HPC)).

For `ClCCN(CCCl)CCNc1ccnc2cc(Cl)ccc12`, the T/C by setting is: (dose: 0.13 mg/kg/injection, schedule: Q01DX009 (ip), vehicle: saline) 105 % of control; (dose: 0.5 mg/kg/injection, schedule: Q01DX009 (ip), vehicle: saline) 100 % of control; (dose: 1.0 mg/kg/injection, schedule: Q04DX003 (ip), vehicle: saline) 172 % of control; (dose: 1.32 mg/kg/injection, schedule: Q01DX009 (ip), vehicle: saline) 154 % of control; (dose: 2.0 mg/kg/injection, schedule: Q01DX009 (ip), vehicle: saline) 154 % of control; (dose: 2.0 mg/kg/injection, schedule: Q04DX003 (ip), vehicle: saline) 109 % of control. Also, the T/C is, setting by setting: (dose: 3.0 mg/kg/injection, schedule: Q01DX009 (ip), vehicle: saline) 181 % of control; (dose: 4.0 mg/kg/injection, schedule: Q04DX003 (ip), vehicle: saline) 154 % of control; (dose: 6.0 mg/kg/injection, schedule: Q04DX003 (ip), vehicle: saline) 159 % of control; (dose: 12.5 mg/kg/injection, schedule: Q04DX003 (ip), vehicle: saline) 163 % of control; (dose: 25.0 mg/kg/injection, schedule: Q04DX003 (ip), vehicle: saline) 86 % of control.

Turning to `COc1ccc(C2CC(c3ccccc3O)=NC(c3ccc(OC)cc3)N2)cc1` (stereo not drawn), the T/C runs as follows: under setting [3], 91 % of control; under setting [4], 94 % of control; under setting [1], 92 % of control.

Consider `O=C(NC1=NN(c2ccccc2)C(=O)C1)c1ccccc1`, for which the T/C was 105 % of control (dose: 37.5 mg/kg/injection, schedule: Q01DX009 (ip), vehicle: saline with Tween-80) and 96 % of control (dose: 150.0 mg/kg/injection, schedule: Q01DX009 (ip), vehicle: saline with Tween-80).

As to `c1ccc([P+](CCN2Cc3ccccc3C2)(c2ccccc2)c2ccccc2)cc1`, the T/C by setting is: under setting [5], 99 % of control; under setting [6], 114 % of control; under setting [7], 105 % of control.

Turning to `c1cc[c]([Pb]([c]2ccccc2)([c]2ccccc2)[n]2cccc2)cc1`, the T/C was 90 % of control (dose: 3.12 mg/kg/injection, schedule: Q01DX009 (ip), vehicle: saline); 109 % of control under setting [6]; 109 % of control under setting [7]; 100 % of control (dose: 21.25 mg/kg/injection, schedule: Q04DX003 (ip), vehicle: Klucel (hydroxypropylcellulose) (HPC)); 113 % of control (dose: 42.5 mg/kg/injection, schedule: Q04DX003 (ip), vehicle: Klucel (hydroxypropylcellulose) (HPC)).

As to `O=C(C=P(c1ccccc1)(c1ccccc1)c1ccccc1)CCl`, the T/C was 91 % of control (dose: 6.25 mg/kg/injection, schedule: Q01DX009 (ip), vehicle: Klucel (hydroxypropylcellulose) (HPC)); 100 % of control (dose: 6.25 mg/kg/injection, schedule: Q04DX003 (ip), vehicle: Klucel (hydroxypropylcellulose) (HPC)); 91 % of control (dose: 12.5 mg/kg/injection, schedule: Q01DX009 (ip), vehicle: Klucel (hydroxypropylcellulose) (HPC)); 100 % of control (dose: 12.5 mg/kg/injection, schedule: Q04DX003 (ip), vehicle: Klucel (hydroxypropylcellulose) (HPC)); 100 % of control (dose: 25.0 mg/kg/injection, schedule: Q01DX009 (ip), vehicle: Klucel (hydroxypropylcellulose) (HPC)); 100 % of control (dose: 25.0 mg/kg/injection, schedule: Q04DX003 (ip), vehicle: Klucel (hydroxypropylcellulose) (HPC)).

Take `CCCCNC(C)(C)C(SSC(c1cccs1)C(C)(C)NCCCC)c1cccs1` (stereo not drawn): the T/C was 100 % of control under setting [3]; 109 % of control (dose: 25.0 mg/kg/injection, schedule: Q04DX003 (ip), vehicle: saline with Tween-80); 100 % of control under setting [4]; 118 % of control (dose: 50.0 mg/kg/injection, schedule: Q04DX003 (ip), vehicle: saline with Tween-80); 118 % of control under setting [2].

Consider `COc1cc(NCCCCCCCNC(C)C)c2nccc(C)c2c1`, for which the T/C is 105 % of control under setting [5]; 98 % of control and 115 % of control under setting [6]; 109 % of control and 116 % of control (dose: 25.0 mg/kg/injection, schedule: Q01DX009 (ip), vehicle: saline).
